Measurements as given in ChEMBL document CHEMBL5360591, “Licochalcone A Derivatives as Selective Dipeptidyl Peptidase 4 Inhibitors with Anti-Inflammatory Effects” (J Nat Prod, 2023).
The source made the active and inactive calls. The rule behind the calls is not given here.

How the values were obtained:
Dipeptidyl peptidase 4 [1] = molecular target: T1, Dipeptidyl peptidase 4 (Homo sapiens, UniProt P27487); assay: Inhibition of DPP4 in human plasma using GP-BAN as fluorescent substrate preincubated for 5 mins followed by substrate addition and measured for 20 mins by microplate reader analysis; type: cell-free
Target sequence in this assay (P27487 whole entry): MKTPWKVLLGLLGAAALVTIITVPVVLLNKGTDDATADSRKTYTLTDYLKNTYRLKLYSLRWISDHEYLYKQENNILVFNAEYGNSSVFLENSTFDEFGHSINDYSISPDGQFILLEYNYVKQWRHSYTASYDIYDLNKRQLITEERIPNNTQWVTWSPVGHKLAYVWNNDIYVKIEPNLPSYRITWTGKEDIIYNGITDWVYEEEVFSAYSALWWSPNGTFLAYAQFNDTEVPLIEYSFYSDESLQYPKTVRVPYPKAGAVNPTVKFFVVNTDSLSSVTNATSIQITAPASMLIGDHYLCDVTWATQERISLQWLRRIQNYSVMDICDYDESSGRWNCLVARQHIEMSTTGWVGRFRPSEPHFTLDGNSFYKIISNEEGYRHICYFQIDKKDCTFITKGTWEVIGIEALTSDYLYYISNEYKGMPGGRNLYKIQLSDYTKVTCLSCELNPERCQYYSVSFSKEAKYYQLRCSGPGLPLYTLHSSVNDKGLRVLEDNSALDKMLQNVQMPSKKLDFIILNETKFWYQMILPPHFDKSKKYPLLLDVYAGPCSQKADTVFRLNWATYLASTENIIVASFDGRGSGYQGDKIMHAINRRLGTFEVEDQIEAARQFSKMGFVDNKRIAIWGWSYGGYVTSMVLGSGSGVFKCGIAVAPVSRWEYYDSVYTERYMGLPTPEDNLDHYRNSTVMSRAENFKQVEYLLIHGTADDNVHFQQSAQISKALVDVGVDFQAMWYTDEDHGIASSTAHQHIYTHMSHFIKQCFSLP

Dipeptidyl peptidase 4 [2] = molecular target: T1, Dipeptidyl peptidase 4; assay: Mixed type inhibition of DPP4 (unknown origin) using varying concentrations of GP-BAN as substrate assessed as inhibition constant
Target sequence in this assay (P27487 whole entry): as above

[3] = Metabolic stability in human liver microsomes assessed as UDPGA-dependent drug metabolism by measuring half life at 10 uM preincubated for 3 mins followed by UDPGA addition measured for 90 mins by LC-UV analysis; type: ADME, Microsome; settings: time 93 min
RAW264.7 [4] = assay: Cytotoxicity against mouse RAW264.7 cells assessed as cell growth inhibition incubated for 48 hrs by CCK-8 assay; type: toxicity, cell-based; settings: raw264.7, 48 h
RPTEC = assay: Cytotoxicity against human RPTEC cells assessed as cell growth inhibition incubated for 48 hrs by CCK-8 assay; type: toxicity, cell-based
Dipeptidyl peptidase 4 [5] = molecular target: T1, Dipeptidyl peptidase 4; assay: Inhibition of DPP4 in human HepG2 cells using GP-BAN as substrate assessed reduction of reduction in substrate hydrolysis at 20 uM incubated for 30 mins by Hoechst 33342 staining based assay; type: cell-based
Target sequence in this assay (P27487 whole entry, looked up): as the sequence (P27487 whole entry) above

Dipeptidyl peptidase 4 [6] = molecular target: T1, Dipeptidyl peptidase 4; assay: Inhibition of DPP4 in human Caco-2 cells using GP-BAN as substrate assessed reduction of reduction in substrate hydrolysis at 20 uM incubated for 30 mins by Hoechst 33342 staining based assay; type: cell-based
Target sequence in this assay (P27487 whole entry, looked up): as the sequence (P27487 whole entry) above

RAW264.7 [7] = assay: Anti-inflammatory activity in mouse RAW264.7 cells assessed as downregulation of LPS-stimulated TNF-alpha mRNA expression at 20 to 100 uM preincubated for 4 hrs followed by LPS-stimulation for 24 hrs by qPCR analysis; type: functional, cell-based; settings: dose 20-100 µM, time 28.0 hrs
RAW264.7 [8] = assay: Anti-inflammatory activity in mouse RAW264.7 cells assessed as downregulation of LPS-stimulated IL-1beta mRNA expression at 20 to 100 uM preincubated for 4 hrs followed by LPS-stimulation for 24 hrs by qPCR analysis; type: functional, cell-based; settings: dose 20-100 µM, time 28.0 hrs
RAW264.7 [9] = assay: Anti-inflammatory activity in mouse RAW264.7 cells assessed as downregulation of LPS-stimulated IL-6 mRNA expression at 20 to 100 uM preincubated for 4 hrs followed by LPS-stimulation for 24 hrs by qPCR analysis; type: functional, cell-based; settings: dose 20-100 µM, time 28.0 hrs
[10] = Stability of the compound in artificial gastric fluid at 10 uM incubated for 90 mins by LC-UV analysis; type: ADME; settings: simulated gi fluid, 1.5 h
[11] = Stability of the compound in artificial intestinal fluid at 10 uM incubated for 90 mins by LC-UV analysis; type: ADME; settings: simulated gi fluid, 1.5 h
[12] = Metabolic stability in human liver microsomes assessed as […] drug metabolism by measuring half life at 10 uM preincubated for 3 mins followed by NADPH addition measured for 90 mins by LC-UV analysis; type: ADME, Microsome; settings: time 93 min
Prolyl endopeptidase FAP = molecular target: T2, Prolyl endopeptidase FAP (Homo sapiens, UniProt Q12884); assay: Inhibition of recombinant human FAP using Z-GP-AMC as substrate preincubated for 5 mins followed by substrate addition and measured after 20 mins by microplate reader analysis
T2 sequence (Q12884 whole entry): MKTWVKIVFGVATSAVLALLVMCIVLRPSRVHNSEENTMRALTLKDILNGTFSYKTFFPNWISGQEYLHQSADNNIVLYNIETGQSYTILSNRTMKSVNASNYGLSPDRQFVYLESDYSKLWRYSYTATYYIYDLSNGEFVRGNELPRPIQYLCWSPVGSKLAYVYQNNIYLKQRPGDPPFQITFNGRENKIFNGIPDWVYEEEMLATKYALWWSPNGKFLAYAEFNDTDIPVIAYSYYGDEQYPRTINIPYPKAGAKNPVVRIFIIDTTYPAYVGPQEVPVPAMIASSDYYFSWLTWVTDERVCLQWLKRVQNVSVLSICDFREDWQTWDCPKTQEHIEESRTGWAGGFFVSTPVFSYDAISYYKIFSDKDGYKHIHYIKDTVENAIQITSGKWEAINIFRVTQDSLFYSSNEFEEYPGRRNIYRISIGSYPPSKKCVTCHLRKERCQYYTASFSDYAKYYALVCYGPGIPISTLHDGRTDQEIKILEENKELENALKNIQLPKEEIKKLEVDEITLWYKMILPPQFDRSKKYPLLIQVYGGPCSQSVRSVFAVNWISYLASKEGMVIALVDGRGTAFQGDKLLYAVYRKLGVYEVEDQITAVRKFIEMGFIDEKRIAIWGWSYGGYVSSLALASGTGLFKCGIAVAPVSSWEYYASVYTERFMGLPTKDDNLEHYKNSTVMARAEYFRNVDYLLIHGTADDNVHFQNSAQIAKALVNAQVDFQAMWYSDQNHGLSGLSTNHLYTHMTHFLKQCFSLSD

Prothrombin = Prothrombin (Homo sapiens, UniProt P00734); assay: Inhibition of recombinant thrombin in human plasma using […] as substrate preincubated for 3 mins followed by substrate addition and measured for 30 mins by microplate reader analysis; type: cell-free
Dipeptidyl peptidase 9 = Dipeptidyl peptidase 9 (Homo sapiens, UniProt Q86TI2); assay: Inhibition of recombinant human DPP9 using Z-GP-AMC as substrate preincubated for 5 mins followed by substrate addition and measured after 20 mins by microplate reader analysis
Dipeptidyl peptidase 9, sequence (Q86TI2 whole entry): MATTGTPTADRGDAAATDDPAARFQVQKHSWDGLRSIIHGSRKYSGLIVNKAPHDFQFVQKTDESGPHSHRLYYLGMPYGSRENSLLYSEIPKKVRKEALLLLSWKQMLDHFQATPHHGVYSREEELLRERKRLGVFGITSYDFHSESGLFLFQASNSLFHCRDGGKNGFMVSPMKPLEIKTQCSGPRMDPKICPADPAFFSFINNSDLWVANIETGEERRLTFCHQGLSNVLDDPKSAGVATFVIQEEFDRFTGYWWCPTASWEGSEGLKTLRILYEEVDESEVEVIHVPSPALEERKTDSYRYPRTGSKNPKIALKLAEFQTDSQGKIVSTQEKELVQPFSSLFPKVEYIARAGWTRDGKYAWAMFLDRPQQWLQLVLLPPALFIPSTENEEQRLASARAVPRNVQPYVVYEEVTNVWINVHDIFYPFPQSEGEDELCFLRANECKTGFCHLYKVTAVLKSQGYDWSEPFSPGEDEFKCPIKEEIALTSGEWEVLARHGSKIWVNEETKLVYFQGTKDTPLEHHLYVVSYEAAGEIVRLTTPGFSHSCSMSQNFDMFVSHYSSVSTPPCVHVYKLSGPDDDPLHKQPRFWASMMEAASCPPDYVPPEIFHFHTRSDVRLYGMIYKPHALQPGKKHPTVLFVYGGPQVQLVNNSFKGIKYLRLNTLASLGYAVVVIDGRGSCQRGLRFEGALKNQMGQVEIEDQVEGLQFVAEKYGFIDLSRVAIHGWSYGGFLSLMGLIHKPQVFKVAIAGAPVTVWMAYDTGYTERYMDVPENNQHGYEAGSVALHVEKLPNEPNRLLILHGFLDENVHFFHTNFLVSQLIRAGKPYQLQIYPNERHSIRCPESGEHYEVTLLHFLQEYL

Prolyl endopeptidase = molecular target: T3, Prolyl endopeptidase (Homo sapiens, UniProt P48147); assay: Inhibition of recombinant human PREP using Z-GP-AMC as substrate preincubated for 5 mins followed by substrate addition and measured after 20 mins by microplate reader analysis
T3 sequence (P48147 whole entry): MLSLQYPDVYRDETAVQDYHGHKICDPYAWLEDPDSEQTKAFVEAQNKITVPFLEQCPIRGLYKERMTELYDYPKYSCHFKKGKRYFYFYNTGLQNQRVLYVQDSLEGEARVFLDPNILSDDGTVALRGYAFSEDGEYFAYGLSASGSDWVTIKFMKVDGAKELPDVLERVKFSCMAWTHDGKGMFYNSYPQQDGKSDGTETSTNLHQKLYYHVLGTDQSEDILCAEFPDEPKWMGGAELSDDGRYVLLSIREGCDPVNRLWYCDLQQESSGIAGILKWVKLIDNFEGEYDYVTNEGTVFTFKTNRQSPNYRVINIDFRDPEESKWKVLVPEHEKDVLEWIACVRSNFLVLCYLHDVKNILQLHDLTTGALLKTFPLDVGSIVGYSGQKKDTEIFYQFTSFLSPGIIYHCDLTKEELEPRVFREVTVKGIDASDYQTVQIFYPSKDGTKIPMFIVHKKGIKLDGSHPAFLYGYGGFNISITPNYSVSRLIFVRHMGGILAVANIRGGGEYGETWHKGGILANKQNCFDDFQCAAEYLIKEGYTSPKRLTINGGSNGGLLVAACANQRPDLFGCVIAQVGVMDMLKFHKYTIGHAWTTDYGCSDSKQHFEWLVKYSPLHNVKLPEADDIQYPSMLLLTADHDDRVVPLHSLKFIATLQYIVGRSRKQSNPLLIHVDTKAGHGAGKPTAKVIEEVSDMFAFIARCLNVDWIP

Dipeptidyl peptidase 4 [13] = molecular target: T1, Dipeptidyl peptidase 4; assay: Inhibition of recombinant human DPP4 using GP-BAN as substrate preincubated for 5 mins followed by substrate addition and measured after 20 mins by microplate reader analysis
Target sequence in this assay (P27487 whole entry): as the sequence (P27487 whole entry) above

Homo sapiens [14] = species: Homo sapiens; assay: Selectivity index, ratio of IC50 for inhibition of recombinant human DPP9 to IC50 for inhibition of recombinant human DPP4
Homo sapiens [15] = species: Homo sapiens; assay: Selectivity index, ratio of IC50 for inhibition of recombinant human PREP to IC50 for inhibition of recombinant human DPP4

COc1cc(O)c(Cl)cc1/C=C/C(=O)c1ccc(O)cc1
IC50 (Dipeptidyl peptidase 4 [1]): 7.16 µM
Ki (Dipeptidyl peptidase 4 [2]): 6.57 µM
half-life at 10 µM [3]: 7.1 min
Activity (RAW264.7 [4]): Non-Toxic
Activity (RPTEC): Non-Toxic
inhibition (Dipeptidyl peptidase 4 [5]): Active
inhibition (Dipeptidyl peptidase 4 [6]): Active
Activity (RAW264.7 [7]): Active
Activity (RAW264.7 [8]): Active
Activity (RAW264.7 [9]): Active

COc1cc(O)c(Cl)cc1/C=C/C(=O)c1ccc(Br)cc1
IC50 (Dipeptidyl peptidase 4 [1]): 9.87 µM
Ki (Dipeptidyl peptidase 4 [2]): 3.18 µM

COc1cc(O)c(Cl)cc1/C=C/C(=O)c1cccc(O)c1
IC50 (Dipeptidyl peptidase 4 [1]): 6.43 µM
Ki (Dipeptidyl peptidase 4 [2]): 17.4 µM

CCCOc1ccc(C(=O)/C=C/c2cc(Cl)c(O)cc2OC)cc1
IC50 (Dipeptidyl peptidase 4 [1]): 11.4 µM

N[C@@H](CC(=O)N1CCn2c(nnc2C(F)(F)F)C1)Cc1cc(F)c(F)cc1F
Activity (RAW264.7 [7]): Active
Activity (RAW264.7 [8]): Active
Activity (RAW264.7 [9]): Active

COc1ccc(C(=O)/C=C/c2cc(Cl)c(O)cc2OC)cc1O
IC50 (Dipeptidyl peptidase 4 [1]): 9.09 µM
Ki (Dipeptidyl peptidase 4 [2]): 23.1 µM

CCCOc1ccc(C(=O)/C=C/c2cc(Cl)c(OC)cc2OC)cc1
IC50 (Dipeptidyl peptidase 4 [1]): > 100 µM

C[C@@H]1C[C@H]2[C@@H]3CCC4=CC(=O)C=C[C@]4(C)[C@@]3(F)[C@@H](O)C[C@]2(C)[C@@]1(O)C(=O)CO
Activity (RAW264.7 [7]): Active
Activity (RAW264.7 [8]): Active
Activity (RAW264.7 [9]): Active

CCCCOc1ccc(C(=O)/C=C/c2cc(Br)c(O)cc2OC)cc1
IC50 (Dipeptidyl peptidase 4 [1]): > 100 µM

COc1ccc(C(=O)/C=C/c2cc(Cl)c(OC)cc2OC)cc1
IC50 (Dipeptidyl peptidase 4 [1]): > 100 µM

CCOc1ccc(C(=O)/C=C/c2cc(Br)c(O)cc2OC)cc1
IC50 (Dipeptidyl peptidase 4 [1]): 35 µM

CCCCOc1ccc(C(=O)/C=C/c2cc(Cl)c(O)cc2OC)cc1
IC50 (Dipeptidyl peptidase 4 [1]): 42.9 µM

COc1cc(O)c(Cl)cc1/C=C/C(=O)c1ccc(O)c([N+](=O)[O-])c1
IC50 (Dipeptidyl peptidase 4 [1]): 4.27 µM
Ki (Dipeptidyl peptidase 4 [2]): 0.96 µM
Stability [10]: Stable
Stability [11]: Stable
half-life at 10 µM [3]: 25.4 min
half-life at 10 µM [12]: 197 min
IC50 (Prolyl endopeptidase FAP): > 100 µM
IC50 (Prothrombin): > 100 µM
IC50 (Dipeptidyl peptidase 9): 86.3 µM
IC50 (Prolyl endopeptidase): 62.1 µM
IC50 (Dipeptidyl peptidase 4 [13]): 4.87 µM
Activity (RAW264.7 [4]): Non-Toxic
Activity (RPTEC): Non-Toxic
inhibition (Dipeptidyl peptidase 4 [5]): Active
inhibition (Dipeptidyl peptidase 4 [6]): Active
Activity (RAW264.7 [7]): Active
Activity (RAW264.7 [8]): Active
Activity (RAW264.7 [9]): Active
Ratio IC50 (Homo sapiens [14]): > 12.7
Ratio IC50 (Homo sapiens [15]): > 12.7

O=c1ccc2ccc(O)cc2o1 [UMBELLIFERONE]
half-life at 10 µM [3]: 17.1 min

COc1cc(C(=O)/C=C/c2cc(Cl)c(O)cc2OC)ccc1O
IC50 (Dipeptidyl peptidase 4 [1]): 31.9 µM

COc1ccc(C(=O)/C=C/c2cc(Cl)c(O)cc2OC)cc1
IC50 (Dipeptidyl peptidase 4 [1]): 11 µM

COc1cc(O)c(Cl)cc1/C=C/C(=O)c1ccc(C(F)(F)F)cc1
IC50 (Dipeptidyl peptidase 4 [1]): 12.6 µM

COc1cc(OC)c(/C=C/C(=O)c2ccc(O)cc2)cc1Cl
IC50 (Dipeptidyl peptidase 4 [1]): 49.2 µM

COc1cc(O)c(Cl)cc1/C=C/C(=O)c1ccc(O)c(O)c1
IC50 (Dipeptidyl peptidase 4 [1]): 8.86 µM
Ki (Dipeptidyl peptidase 4 [2]): 11.1 µM

COc1cc(O)c(Br)cc1/C=C/C(=O)c1ccc(O)cc1
IC50 (Dipeptidyl peptidase 4 [1]): 16.4 µM

CCCOc1ccc(C(=O)/C=C/c2cc(Br)c(O)cc2OC)cc1
IC50 (Dipeptidyl peptidase 4 [1]): 26.5 µM

COc1ccc(C(=O)/C=C/c2cc(Br)c(O)cc2OC)cc1
IC50 (Dipeptidyl peptidase 4 [1]): 34 µM

C=CC(C)(C)c1cc(/C=C/C(=O)c2ccc(O)cc2)c(OC)cc1O [LICOAGROCHACONE A]
IC50 (Dipeptidyl peptidase 4 [1]): 30.4 µM

COc1cc(O)c(Cl)cc1/C=C/C(=O)c1ccc(O)c(C)c1
IC50 (Dipeptidyl peptidase 4 [1]): 15.1 µM

CCOc1ccc(C(=O)/C=C/c2cc(Cl)c(OC)cc2OC)cc1
IC50 (Dipeptidyl peptidase 4 [1]): > 100 µM

O=c1c(O)c(-c2ccc(O)cc2)oc2cc(O)cc(O)c12 [KAEMPFEROL]
IC50 (Dipeptidyl peptidase 4 [1]): 6.67 µM
Ki (Dipeptidyl peptidase 4 [2]): 14.4 µM

CCOc1ccc(C(=O)/C=C/c2cc(Cl)c(O)cc2OC)cc1
IC50 (Dipeptidyl peptidase 4 [1]): 21.2 µM
